Measurements from patent publication US9714249B2 (Novartis AG, priority 2013, dated 2017).

Key:
BRD3 (His-Brd3(20-477)) = BRD3 (His-Brd3(20-477)) (Homo sapiens (Human), UniProt Q15059); assay: TR-FRET in-vitro binding assay for BRD3; conditions: acetyl-histone H4 peptide
Experimental: (§1) All assays were performed in 384 well microtiter plates. Each assay plate contained 8-point serial dilutions for 40 test compounds, plus 16 high- and 16 low controls. Liquid handling and incubation steps were done on an Innovadyne Nanodrop Express equipped with a robotic arm (Thermo CatX, Perkin Elmer/Caliper Twister II) and an incubator (Liconic STX40, Thermo Cytomat 2C450). The assay plates were prepared by addition of 50 nl per well of compound solution in 90% DMSO HummingBird nanodispenser (Zinsser Analytic). The assay was started by stepwise addition of 4.5 μl per well of bromo domain protein (50 mM HEPES, pH 7.5, 0.005% Tween20, 0.1% BSA, 50 mM NaCl, 45 nM His-Brd2(60-472) or 45 nM His-Brd3(20-477) or 45 nM His-Brd4(44-477) all proteins produced in-house) and 4.5 μl per well of peptide solution (50 mM HEPES, pH 7.5, 0.005% Tween20, 0.1% BSA, 50 mM NaCl, 60 nM acetyl-histone H4 (AcK 5, 8, 12, 16) (Biosyntan GmbH)). Reactions were incubated at 30° C. for 35 minutes. Subsequently 4.5 μl per well detection mix (50 mM HEPES, pH 7.5, 0.005% Tween20, 0.1% BSA, 50 mM NaCl, 3 nM Eu-labeled anti-His6 antibody, 21 nM streptavidin-allophycocyanin) were added. After 35 minutes incubation at 30° C., plates were measured in a Perkin Elmer EnVision multilabel reader. Concentrations causing 50% inhibition (1050) values were determined from percent inhibition values at different compound concentrations by non-linear regression analysis.
(§2) Test compounds were dissolved in DMSO (10 mM) and transferred into 1.4 mL flat bottom or V-shaped Matrix tubes carrying a unique 2D matrix. The stock solutions were stored at […] if not used immediately. For the test procedure the vials were defrosted and identified by a scanner whereby a working sheet was generated that guided the subsequent working steps. Compound dilutions were made in 96 well plates. This format enabled the assay of maximally 40 individual test compounds at 8 concentrations (single points) including 4 reference compounds, if desired (known BET inhibitors from the prior art, for this and other assays of the type disclosed herein). The dilution protocol included the production of “pre-dilution plates”, “master plates” and “assay plates”.
(§3) Pre-dilution plates: 96 polypropylene well plates were used as pre-dilution plates. A total of 4 pre-dilution plates were prepared including 10 test compounds each on the plate positions A1-A10, one standard compound at A11 and one DMSO control at A12. All dilution steps were done on a HamiltonSTAR robot. Master plates: 30 μL of individual compound dilutions including standard compound and controls of the 4 “pre-dilution plates” were transferred into a 384 “master plate” including the following concentrations 10000, 3003, 1000, 300, 100, 30, 10 and 3 μM, respectively in 90% of DMSO. Assay plates: Identical “assay plates” were then prepared by pipetting 50 nL each of compound dilutions of the “master plates” into 384-well “assay plates” by means of a HummingBird 384-channel dispenser. These plates were used directly for the assay which was performed in a total volume of 13.55 μL. This led to a final compound concentration of 37, 11, 3.7, 1.1, 0.37, 0.11, 0.037 and 0.011 μM and a final DMSO concentration of 0.37% in the assay. Cell Growth Inhibition Assay

K-562 cells = assay: Cell growth inhibition assay (CellTiter-Glo), K-562; type: cell-based, human; conditions: K-562, 4 days; for GI50: Homo sapiens, K562, 96 h, half-maximal growth inhibition; for K-562 TGI: total growth inhibition
Experimental: (§4) The human leukemia cell lines MV-4-11, THP-1 and K-562 were employed to characterize the effect of BET inhibitors on cellular proliferation and viability. Cells were obtained from the American Type Culture Collection (ATCC) and cultured at 37° C. in a humidified 5% CO2 incubator in the following media: MV-4-11: DMEM high glucose (Animed #1-26F01-I), 10% FCS (Animed #2-01F26-I), 4 mM L-Glutamine (Animed #5-10K50), 1 mM Sodium Pyruvate (Animed # G03625P), 1× Penicillin-Streptomycin (Animed # F12478P); K-562: Iscove's MEM (Animed #1-28F16-I), 10% FCS (Animed #2-01F26-I), 4 mM L-Glutamine (Animed #5-10K50), 1× Penicillin-Streptomycin (Animed # F12478P); THP-1: RPMI-1640 (Animed #1-41F01-I), 10% FCS (Animed #2-01F26-I), 2 mM L-Glutamine (Animed #5-10K50), 10 mM HEPES (Animed #5-31F100), 1 mM Sodium Pyruvate (Animed # G03625P), 1× Penicillin-Streptomycin (Animed # F12478P). The AML lines MV-4-11 and THP-1 are very sensitive to BET inhibitors and show massive cell death upon BET inhibition (Zuber et al., Nature, 478 (2011), 524-8). Compound-mediated suppression of cell proliferation/viability was assessed by quantification of cellular ATP levels using the CellTiter-Glo (CTG) reagent (Promega). Briefly, cells were seeded in 20 μl fresh medium into 384-well plates, followed by addition of 5 μl medium containing compound dilutions at 5-fold their final intended concentration. Dose-response effects were assessed by 3-fold serial dilutions of the test compound, starting at 10 μM. Following incubation of the cells for 4 days at 37° C. and 5% CO2, the effect of inhibitors on cell viability was quantified following addition of 20 μl CTG and luminescence quantification (integration time: 100 ms) as per vendor manual, using a correspondingly equipped Tecan M200 multi-mode platereader (TECAN, Switzerland). For data analysis, the assay background value determined in wells containing medium, but no cells, was subtracted from all data points. To enable differentiation of cytotoxic from cytostatic compounds, the number of viable cells is assessed relative to that observed at the time of compound addition using a separate cell plate (day 0). The effect of a particular test compound concentration on cell proliferation/viability is expressed as percentage of the background- and day 0-corrected luminescence reading obtained for cells treated with vehicle only (DMSO, 0.1% final concentration), which is set as 100%, whereas that luminescence reading for wells containing medium is set as −100%. Compound concentrations leading to half-maximal (1050) and total growth inhibition (TGI) were determined using standard four parameter curve fitting.

MV-4-11 cells = assay: Cell growth inhibition assay (CellTiter-Glo), MV-4-11; type: cell-based, human; conditions: MV-4-11, 4 days; for GI50: Homo sapiens, MV4-11, 96 h, half-maximal growth inhibition; for MV-4-11 TGI: total growth inhibition
Experimental: as §4

THP-1 cells = assay: Cell growth inhibition assay (CellTiter-Glo), THP-1; type: cell-based, human; conditions: THP-1, 4 days; for GI50: Homo sapiens, 96 h, half-maximal growth inhibition; for THP-1 TGI: total growth inhibition
Experimental: as §4

[1] = biological target: CREBBP bromodomain (His-CREBBP (1081-1197)) (Homo sapiens (Human), UniProt Q92793); assay: AlphaScreen in-vitro binding assay for CREBBP; conditions: acetyl-histone H4 peptide
Experimental: In order to assess bromodomain selectivity, we set up a binding assay using the bromodomain encoded by the CREBBP gene. […] Reactions were incubated at 30° C. for 35 minutes. Subsequently 4.5 μl per well detection mix (50 mM HEPES, pH 7.5, 0.005% Tween20, 0.02% BSA, 150 mM NaCl, 45 μg/ml Ni-chelate acceptor beads, 45 μg/ml streptavidin-donor beads) (Perkin Elmer)) were added. After 60 minutes incubation at room temperature, plates were measured in a Perkin Elmer EnVision multilabel reader. IC50 values were determined from percent inhibition values at different compound concentrations by non-linear regression analysis.
as §2
Pre-dilution plates: 96 polypropylene well plates were used as pre-dilution plates. A total of 4 pre-dilution plates were prepared including 10 test compounds each on the plate positions A1-A10, one standard compound at A11 and one DMSO control at A12. All dilution steps were done on a HamiltonSTAR robot. […] These plates were used directly for the assay which was performed in a total volume of 13.55 μL. […] Cell Growth Inhibition Assay

BRD4-NUT-fusion = BRD4-NUT-fusion (Homo sapiens (Human), UniProt O60885+Q86Y26); assay: Nut-foci formation assay (HCS) in HCC2494 NUT midline carcinoma cells; type: cell-based; conditions: 24 hours, nuclear BRD4-NUT foci, immunofluorescence
Experimental: Compound-mediated inhibition of BRD4 activity was monitored by quantification of the number and intensity of nuclear BRD4-NUT foci using automated immunofluorescence microscopy. Briefly, 5000 cells in 20 μl fresh medium were seeded into Poly-D-Lysine-precoated 384-well plates and incubated overnight at 37° C. and 5% CO2, followed by addition of 5 μl medium containing compound dilutions at 5-fold their final intended concentration. Dose-response effects were assessed by 3-fold serial dilutions of the test compound, starting at 10 μM. […] Assay plates were imaged using the appropriate filter sets on the Cellomics VTi automated fluorescence microscopy platform (ThermoFisher Scientific) and the population average of the number of NUT-foci per nucleus is quantified using the Cellomics Spot Detection BioApplication image analysis algorithm (ThermoFisher Scientific). The effect of a particular test compound concentration on NUT-foci number and intensity is expressed as percentage of the value obtained for cells treated with vehicle only (DMSO, 0.1% final concentration), which was set as 100.

BRD2 (His-Brd2(60-472)) = BRD2 (His-Brd2(60-472)) (Homo sapiens (Human), UniProt P25440); assay: TR-FRET in-vitro binding assay for BRD2; conditions: acetyl-histone H4 peptide
Experimental: as §1, §2, §3

Chain of BRD3 (His-Brd3(20-477)) (Q15059 20-477, species assumed): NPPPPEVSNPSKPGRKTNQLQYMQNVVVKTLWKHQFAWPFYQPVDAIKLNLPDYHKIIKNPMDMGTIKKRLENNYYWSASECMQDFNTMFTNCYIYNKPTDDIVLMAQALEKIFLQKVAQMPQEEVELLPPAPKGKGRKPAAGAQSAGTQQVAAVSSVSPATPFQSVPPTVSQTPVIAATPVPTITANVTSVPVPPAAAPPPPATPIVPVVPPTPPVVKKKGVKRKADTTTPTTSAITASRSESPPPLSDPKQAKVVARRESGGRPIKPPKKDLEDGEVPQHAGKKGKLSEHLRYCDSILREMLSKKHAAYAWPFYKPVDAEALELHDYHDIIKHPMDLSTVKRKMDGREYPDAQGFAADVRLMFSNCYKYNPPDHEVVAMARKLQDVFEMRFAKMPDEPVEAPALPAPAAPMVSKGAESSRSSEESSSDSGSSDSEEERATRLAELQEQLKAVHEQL
Chain of CREBBP bromodomain (His-CREBBP (1081-1197)) (Q92793 1081-1197): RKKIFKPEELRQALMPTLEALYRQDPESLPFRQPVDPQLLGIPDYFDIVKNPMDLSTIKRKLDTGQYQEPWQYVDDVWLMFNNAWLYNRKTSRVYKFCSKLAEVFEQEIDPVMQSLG
Chain of BRD2 (His-Brd2(60-472)) (P25440 60-472, species assumed): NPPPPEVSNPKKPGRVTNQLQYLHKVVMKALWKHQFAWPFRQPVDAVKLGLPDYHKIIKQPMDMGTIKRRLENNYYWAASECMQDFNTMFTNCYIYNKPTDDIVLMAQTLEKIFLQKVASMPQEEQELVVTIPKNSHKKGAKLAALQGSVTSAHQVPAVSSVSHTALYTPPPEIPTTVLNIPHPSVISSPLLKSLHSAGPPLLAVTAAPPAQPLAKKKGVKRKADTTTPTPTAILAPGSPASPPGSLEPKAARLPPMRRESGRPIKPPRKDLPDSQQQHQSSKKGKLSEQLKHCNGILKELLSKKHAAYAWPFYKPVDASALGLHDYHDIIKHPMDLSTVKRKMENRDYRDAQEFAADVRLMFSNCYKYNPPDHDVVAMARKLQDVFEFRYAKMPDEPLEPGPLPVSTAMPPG

IC50 (BRD3 (His-Brd3(20-477))) [nM]	GI50 (K-562 cells) [nM]	GI50 (MV-4-11 cells) [nM]	GI50 (THP-1 cells) [nM]	IC50 [1] [nM]	IC50 (BRD2 (His-Brd2(60-472))) [nM]	Compound	K-562 TGI (K-562 cells) [nM]	MV-4-11 TGI (MV-4-11 cells) [nM]	THP-1 TGI (THP-1 cells) [nM]	IC50 (BRD4-NUT-fusion) [nM]
49	170	25.6	59.4	3300	52	Cc1cc(N2C(=O)c3c(C4CC4)n[nH]c3C2c2ccc(Cl)cc2)cn(C)c1=O (stereo not drawn) [Example 23, 6-(4-chlorophenyl)-3-cyclopropyl-5-(1,5-dimethyl-6-oxo-1,6-dihydropyridin-3-yl)-5,6-dihydropyrrolo[3,4-c]pyrazol-4(1H)-one]	>10000	48	128.5	
27	112	27.1	56.2	1200		Cc1[nH]nc2c1C(=O)N(c1cc(C)c(=O)n(C)c1)[C@@H]2c1ccc(Cl)cc1 [Example 27, (R)-6-(4-chlorophenyl)-5-(1,5-dimethyl-6-oxo-1,6-dihydropyridin-3-yl)-3-methyl-5,6-dihydropyrrolo[3,4-c]pyrazol-4(2H)-one]	>10000	49.6	115	

More lines, now with the values behind:

Compound	IC50 (BRD3 (His-Brd3(20-477))) [nM]	GI50 (K-562 cells) [nM]	GI50 (MV-4-11 cells) [nM]	GI50 (THP-1 cells) [nM]	IC50 [1] [nM]	IC50 (BRD2 (His-Brd2(60-472))) [nM]	K-562 TGI (K-562 cells) [nM]	MV-4-11 TGI (MV-4-11 cells) [nM]	THP-1 TGI (THP-1 cells) [nM]	IC50 (BRD4-NUT-fusion) [nM]
Cc1[nH]nc2c1C(=O)N(c1cc(C)c(=O)n(C)c1)C2c1ccc(Cl)cc1 (stereo not drawn) [Example 9, 6-(4-chlorophenyl)-5-(1,5-dimethyl-6-oxo-1,6-dihydropyridin-3-yl)-3-methyl-5,6-dihydropyrrolo[3,4-c]pyrazol-4(2H)-one]	67	322	51	88.5	3000		>10000	72.1	206	
COc1ncccc1-n1nc(C)c2c1C(c1ccc(Cl)cc1)N(c1cc(C)c(=O)n(C)c1)C2=O (stereo not drawn) [Example 17a, 6-(4-chlorophenyl)-5-(1,5-dimethyl-6-oxo-1,6-dihydropyridin-3-yl)-1-(2-methoxypyridin-3-yl)-3-methyl-5,6-dihydropyrrolo[3,4-c]pyrazol-4(1H)-one]		293	58.1	102			>10000	87.9	175	56.1
CCOc1ncccc1-n1nc(C)c2c1C(c1ccc(Cl)cc1)N(c1cc(C)c(=O)n(C)c1)C2=O (stereo not drawn) [Example 18a, 6-(4-chlorophenyl)-5-(1,5-dimethyl-6-oxo-1,6-dihydropyridin-3-yl)-1-(2-ethoxypyridin-3-yl)-3-methyl-5,6-dihydropyrrolo[3,4-c]pyrazol-4(1H)-one]		574	89.3	89.6			>10000	101	175	66.6
